Measurements: patent US20090297545A1, “IMMUNOMODULATORY DAIRY PEPTIDES AND USES THEREOF” (Universite Laval, priority 2008, published 2009)
Marks after values point to notes of the source that are not given here.

Tested on: murine splenocytes
Experiment: Ex vivo murine splenocytes proliferation assay (Alamar Blue), Example I
Type: cell-based, BALB/c mice
Settings: for Stimulation index, proliferation of murine splenocytes in the presence of Concavanalin A: ConA 0.5 μg/mL; for Stimulation index, proliferation of resting murine splenocytes: without ConA
Protocol: Ex vivo murine splenocytes proliferation assay. The splenocytes were isolated from 6- to 12-weeks-old female BALB/c mice (Charles River, St-Constant, QC, Canada) and cultured in the absence and presence of suboptimal concentration of ConA (0.5 μg/mL). The peptides were solubilized in complete RPMI medium, agitated overnight at 4° C. then the solutions were adjusted to pH 7. Thereafter, the peptide solutions were added at various final concentrations (10-2000 μg/mL, protein basis) to the wells of 96-well round-bottomed microplates, which were incubated at 37° C. at 80% relative humidity in a 5% CO2 atmosphere for 72 h (with ConA) or 96 h (without ConA). Cell proliferation was evaluated by the reduction of the fluorochrome Alamar Blue™ (BioSource international, Camarillo, Calif., USA), which was added into the wells for the last 24 h of the incubation periods. The fluorescence of the supernatants was monitored at an excitation wavelength of 560 nm and an emission wavelength of 590 nm using a fluorometer (Fluoroscan Ascent, Thermo Electron Inc., Milford, Mass., USA). The assays were performed in triplicate (three wells per sample) and data are expressed as stimulation indices (SI), and calculated using the following equations: […]

Substance	Stimulation index, proliferation of murine splenocytes in the presence of Concavanalin A (peptide 10 μg mL^−1, 72 h)	Stimulation index, proliferation of resting murine splenocytes (peptide 10 μg mL^−1, 96 h)	Stimulation index, proliferation of murine splenocytes in the presence of Concavanalin A (peptide 100 μg mL^−1, 72 h)	Stimulation index, proliferation of resting murine splenocytes (peptide 100 μg mL^−1, 96 h)	Stimulation index, proliferation of murine splenocytes in the presence of Concavanalin A (peptide 500 μg mL^−1, 72 h)	Stimulation index, proliferation of resting murine splenocytes (peptide 500 μg mL^−1, 96 h)	Stimulation index, proliferation of murine splenocytes in the presence of Concavanalin A (peptide 1000 μg mL^−1, 72 h)	Stimulation index, proliferation of resting murine splenocytes (peptide 1000 μg mL^−1, 96 h)	Stimulation index, proliferation of murine splenocytes in the presence of Concavanalin A (peptide 2000 μg mL^−1, 72 h)	Stimulation index, proliferation of resting murine splenocytes (peptide 2000 μg mL^−1, 96 h)
EILLQK (UniProt P02754 71-76, looked up, fragment) [β-Lg f55-60]	1.96	1.05	1.92	1.09	1.98	1.16	1.93	1.54**	2.34**	1.54**
VLVLDTDYKKYLLF (listed as Homo sapiens) [β-Lg f92-105]	1.92	1.00	1.92	1.07	2.27**	1.15**	2.37**	1.31**	2.69**	1.55**
ALPMHIR (listed as Homo sapiens) [β-Lg f142-148]	2.32	1.16	2.30	1.17	2.36	1.37**	2.49**	1.61**	2.63**	1.73**
VAGTWY (UniProt P02754 31-36, looked up, fragment) [β-Lg f15-20]	1.65	1.01	1.71	1.12*	1.67	1.46**	1.78	1.65**	1.77	1.42**
RELKDLK [α-La f10-16]	1.85	1.06	1.95	1.19	1.95	1.47**	2.08	1.81**	2.26**	1.97**
